Data from publication PMC5702336, “Critical Role of Hepatic Cyp450s in the Testis-Specific Toxicity of (5R)-5-Hydroxytriptolide in C57BL/6 Mice” (Frontiers in Pharmacology, 2017).
Entries after “also recorded” stand apart in the source; their conditions may differ.

Tests used:
[1] = tested on: mice testes; test: Testicular toxicity comparison between triptolide and LLDT-8 (15 days by gavage, H&E); type: in vivo, mouse; settings: 0.25 mg/kg and 0.5 mg/kg by gavage for 15 days
Experimental: For toxicity experiments, mice (n = 3 for each group) were treated with tritpilide (0.125, 0.25, 0.5mg/kg), LLDT-8 (0.125, 0.25, 0.5mg/kg) consecutively administered by gavage for 15 days. The control group received saline. Mice were sacrificed on the 15th day post-administration and blood, liver, kidney, spleen, testis and epididymis were collected. The main lobe of liver, kidney, spleen and epididymis were fixed in 10% neutral buffered formalin for histological examination, the left testicle was fixed in Davidson’s buffer for 16 hours followed by 10% neutral buffered formalin. Tissue sections were stained with hematoxylin and eosin (H&E). Remaining tissues were stored at -80 °C for RNA and protein extraction.
Supplementary Figure S1 Comparison of testicular toxicity between triptolide(TL) and LLDT-8. Mice (n=3) were weighted before sacrificed on the 15th day post-administration of triptolide, LLDT-8 or saline. The testes were collected and weighted. […] (G-H) Comparison of epididymis weight between triptolide and LLDT-8. Significant difference was determined by one-way Anova, mean ± SD. * p<0.05, *** p<0.001 vs Saline group. # p<0.05, ## p<0.01, ### p<0.001 vs T8 group at the same dosage.

[2] = tested on: rat liver microsomes; test: Chemical inhibition study of LLDT-8 metabolism with selective CYP inhibitors; type: in vitro ADME; settings: LLDT-8 2 μM, 0.5 and 1 h, residual LLDT-8 by LC-MS/MS
Experimental: The chemical inhibition assay was performed as previously reported (Li et al., [2008]). A 400 μl typical incubation mixture contained 0.2 mg rat liver microsomes (20 mg/ml, Cat. No: LM-DS-02M, Lot. No: BDVH, Research Institute for liver Diseases, Shanghai, China), 2 μM LLDT-8, 5 mM MgCl2, 1 mM NADPH (Cat. No: 10107824001, Lot. No: 20595625, Sigma, USA) and selective inhibitors of each CYP isoforms in a 100 mM phosphate buffer (pH 7.4). The inhibitors used were as follows: quercetin (2 μM) for CYP1A and CYP2C8, 8-methoxypsoralen (2.5 μM) for CYP2A6, sulfaphenazole (10 μM) for CYP2C9, omeprazole (20 μM) for CYP2C19, quinidine (10 μM) for CYP2D6, clomethiazole (50 μM) for CYP2E1, ketoconazole (1 μM) for CYP3A4 and aminobenzotriazole (50 μM, a broad CYP inhibitor) (Tsyrlov et al., [1994]; Li et al., [2008]). After incubation for 0, 0.5, and 1 h, 100 μl supernatant was collected and quenched by the addition of 100 μl of ice-cold acetonitrile. The mixtures were then centrifuged for 10 min at 20,000 × g. An aliquot of the supernatant was analyzed by LC-MS/MS to monitor the residual LLDT-8 without extraction.

## CC(C)[C@]12O[C@H]1[C@@H]1O[C@]13[C@]1(O[C@H]1C[C@H]1C4=C(CC[C@@]13C)C(=O)OC4)[C@@H]2O [triptolide]
[1]
  testis morphology (H&E): induced severe testicular injury

## CC(=O)N1CCN(c2ccc(OCC3COC(Cn4ccnc4)(c4ccc(Cl)cc4Cl)O3)cc2)CC1 (stereo not drawn) [ketoconazole]
[2]
  effect of CYP inhibitor on the metabolism of LLDT-8: inhibited

## COc1ccc2[nH]c([S+]([O-])Cc3ncc(C)c(OC)c3C)nc2c1 (stereo not drawn) [omeprazole]
[2]
  effect of CYP inhibitor on the metabolism of LLDT-8: inhibited

## Nn1nnc2ccccc21 [aminobenzotriazole]
[2]
  effect of CYP inhibitor on the metabolism of LLDT-8: inhibited

## Cc1ncsc1CCCl [clomethiazole]
[2]
  effect of CYP inhibitor on the metabolism of LLDT-8: inhibited; also recorded: seems to completely inhibit

## C=C[C@H]1C[N@@]2CC[C@H]1C[C@@H]2[C@@H](O)c1ccnc2ccc(OC)cc12 [quinidine]
[2]
  effect of CYP inhibitor on the metabolism of LLDT-8: inhibited
